Experiments:
[1] = test system: collagen-induced arthritis in rats; assay: X-radiography of hind paws on day 71, collagen-induced arthritis in rats; type: in vivo; settings: rat hind paws; 71st day; oral 30 mg/kg per day; versus control
Protocol: On the 71st day the hind paws were examined by X-radiography. Joint damage was assessed according to five parameters and scored on an arbitrary scale of 0 to 5.

[2] = test system: collagen-induced arthritis in rats; assay: collagen-induced arthritis in rats (joint size by electronic calipers, erosion and inflammation); type: in vivo, rat
Protocol: Joint sizes were measured periodically, for 70 days, by means of electronic calipers placed across the tibio-tarsal junction.

CC(=O)c1cc(F)cc(NC(=O)c2nnn[nH]2)c1O [compound A, 3'-Acetyl-5'-fluoro-2'-hydroxytetrazole-5-carboxanilide]
joint damage by X-radiography, five parameters scored on an arbitrary scale of 0 to 5 [1]: For each of the five parameters the joints of the control animals were more severely damaged than those of the treated animals
mean joint diameter (tibio-tarsal junction) over the 70 days ([2]; oral 30 mg/kg per day, 70 days, control animals increased from 7.6 mm to 8.1 mm): 7.7 mm
erosion and inflammation caused by collagen-induced arthritis ([2]; oral, 30 mg/kg body weight per day, compared with control animals): inhibited erosion and inflammation

Source: patent US4935435A, “Use of tetrazole derivatives” (May & Baker Limited, priority 1988, dated 1990)
